The values below are quoted from earlier work in US6329550A, “Amidomalonamides useful as inhibitors of MMP of matrix metalloproteinase” (Aventis Pharmaceuticals Inc., priority 1999, dated 2001).

For the data set, the system named is B16-BL6 murine melanoma. Conditions: intraperitoneal administration; lung colonies produced by intravenous injection of B16-BL6 murine melanoma in C57BL/6N mice.

In the case of `CNC(=O)[C@H](Cc1ccccc1)NC(=O)[C@H](CC(C)C)[C@H](CSc1cccs1)C(=O)NO` [batimastat], the “growth and metastatic spread and number of lung colonies” value was “significant inhibition”.
